Laboratory results reported in US20090012177A1, “Treatment of psychiatric disorders using entacapone, tolcapone and other COMT inhibitor or MB-COMT inhibitor drugs” (priority 2006, published 2009).

How the values were obtained:
[1] = test system: rats; settings: cited from earlier work
[2] = test system: primates; settings: cited from earlier work
[3] = cited from earlier work
[4] = test system: prefrontal cortex functions; settings: subjects with the Val/Val genotype; cited from earlier work
[5] = test system: patients with SCZ, BD, Major depression and drug dependency; assay: Clinical studies of entacapone in more than 100 patients, evaluated with the CGI scale; format: in vivo, human
Experimental: This new therapeutic application was determined in patients (Men/women) in single-drug and combination drug therapy. 100 patients were treated at a dose range of 3-10-mg/kg day (50 mg/day-800 mg/day) orally for period of 12 weeks and continued for as long as patients consented averaged 12 months or more.
The drug efficacy was evaluated using the CGI (Clinical Global Impression) scale. This is a simple tool that is clinically understandable, has proven to be a robust measure of efficacy in drug treatment trial and is highly sensitive to change of clinical status.

[6] = test system: patient with BD; assay: Illustrative case report: a case of BD; format: in vivo, human; settings: 400 mg/day, follow up
Excerpt: Married person, a hedge fund investment manager with history of BD who has had temporary partial response to antidepressants but mainly resulting in exacerbation symptoms of anxiety, relapse to a depression or cycling to mania. They were intolerant of atypical antipsychotics with potential antidepressant effect (Ziprasidone, Aripiprazole and Quetiapine) either as mono therapy or combined with Lithium or Lamotrigine. […] They reported oil Lithium their “up and down swings were better” but complained their depression was not resolved and they were not happy. They also complained of lack of motivation, trouble with concentration, getting easily overwhelmed with their job, inability to feel joy, overall lack of interest in everything, not knowing what to do with themself, gave up on all hobbies, feeling being all consumed, excessive day time napping, feeling bored especially when their time would be unstructured on week end, loss of their spontaneity and resorting to procrastination, They went to an exotic vacation in Caribbean with their spouse with the hope to bounce back. But as they reported they were not able to enjoy their vacation, complained feeling “being stuck at the low bottom and strongly believed they would never come out of it”. They had started to do Marijuana with the hope to improve their mood. They were preoccupied with getting a gun and shoots themself. […]

[7] = test system: patients with drug dependency; assay: Illustrative case reports: six cases of drug dependency; format: in vivo, human
[8] = in vivo; cited from earlier work
[9] = administered in conjunction; cited from earlier work

## Cc1ccc(C(=O)c2cc(O)c(O)c([N+](=O)[O-])c2)cc1 [Tolcapone]
[1]
  extradimensional set shifting performance mediated by prefrontal cortex catecholamines: significantly improved
[2]
  extradimensional set shifting performance mediated by prefrontal cortex catecholamines: significantly improved
[3]; human, in vivo
  tolerability: well tolerated drug with no major side effects
[3]; reported in Europe in the early years of use
  hepatic failure: three cases of hepatic failure

## CC(N)Cc1ccccc1 (stereo not shown) [amphetamine]
[4]
  efficiency of prefrontal cortex functions in working memory tasks: enhanced

## CCN(CC)C(=O)/C(C#N)=C/c1cc(O)c(O)c([N+](=O)[O-])c1 [entacapone]
[5]; during the study, 50-800 mg per day
  serious events (physical, neurological or psychiatric adverse effects): no indication of serious events
[5]; entacapone (Comtan) 50-800 mg per day, more than 100 patients
  cases with improved negative and depressive symptoms (CGI scale): more than 60%
[5]; in comparison to the pre-treatment status
  effect of discontinuation of treatment on clinical condition: did not cause any worsening of the clinical condition
[6]
  duration of maintained effect in BD: 12 months
[7]; cocaine and alcohol dependant, relapsed when entacapone stopped
  duration of abstinence, Case #2: 10 months
[7]; increased to 400 then 600 mg/day
  duration of sobriety, Case #3: 14 months
[8]
  blood brain barrier penetration relative to tolcapone: half that of about tolcapone
[3]; human, in vivo
  common side effects: gastrointestinal problems, including diarrhea, nausea and abdominal pains
  safety profile relative to tolcapone: much better safety profile
[3]; related to increased effects of L-DOPA, beginning of treatment
  most frequent undesirable effects: involuntary movements (dyskinesias)
[9]
  bioavailability of dopaminergic agents such as L-DOPA: increases the bioavailability
